For data set [1], the system named is AMPA receptors. Briefly: Field EPSP in rat hippocampal slices (field CA1): amplitude and area of AMPA receptor-mediated synaptic responses. The data set is classed as cell-based, rat (Sprague-Dawley). As to the method:
The physiological effects of invention compounds can be tested in vitro with slices of rat hippocampus as follows. Excitatory responses (field EPSPs) are measured in hippocampal slices which are maintained in a recording chamber continuously perfused with artificial cerebrospinal fluid (ACSF).
To conduct these tests, the hippocampus was removed from anesthetized, 2 month old Sprague-Dawley rats and in vitro slices (400 micrometers thick) were prepared and maintained in an interface chamber at 35° C. using conventional techniques [see, for example, Dunwiddie and Lynch, J. Physiol. Vol. 276: 353-367 (1978)]. The chamber was constantly perfused at 0.5 ml/min with ACSF containing (in mM): NaCl 124, KCl 3, KH2 PO4 1.25, MgSO4 2.5, CaCl2 3.4, NaHCO3 26, glucose 10 and L-ascorbate 2. A bipolar nichrome stimulating electrode was positioned in the dendritic layer (stratum radiatum) of the hippocampal subfield CA1 close to the border of subfield CA3.
Current pulses (0.1 msec) through the stimulating electrode activate a population of the Schaffer-commissural (SC) fibers which arise from neurons in the subdivision CA3 and terminate in synapses on the dendrites of CA1 neurons. Activation of these synapses causes them to release the transmitter glutamate. Glutamate binds to the postsynaptic AMPA receptors which then transiently open an associated ion channel and permit a sodium current to enter the postsynaptic cell. This current results in a voltage in the extracellular space (the field excitatory postsynaptic potential or field "EPSP") which is recorded by a high impedance recording electrode positioned in the middle of the stratum radiatum of CA1.
For the experiments summarized in FIG. 1, the intensity of the stimulation current was adjusted to produce half-maximal EPSPs (typically about 1.5-2.0 mV). Paired stimulation pulses were given every 40 sec with an interpulse interval of 200 msec (see below). The field EPSPs of the second response were digitized and analyzed to determine amplitude, half-width, and response area. If the responses were stable for 15-30 minutes (baseline), test compounds were added to the perfusion lines for a period of about 15 minutes. The perfusion was then changed back to regular ACSF.
Paired-pulse stimulation was used since stimulation of the SC fibers, in part, activates interneurons which generate an inhibitory postsynaptic potential (IPSP) in the pyramidal cells of CA1. This feed forward IPSP typically sets in after the EPSP reaches its peak. It accelerates the repolarization and shortens the decay phase of the EPSP, and thus could partially mask the effects of the test compounds. One of the relevant features of the feed-forward IPSP is that it can not be reactivated for several hundred milliseconds following a stimulation pulse. This phenomenon can be employed to advantage to eliminate IPSP by delivering paired pulses separated by 200 milliseconds and using the second ("primed") response for data analysis.
These effects are mirrored in the field EPSP, as reported in the literature [see, for example, Staubli et al., Psychobiology supra; Xiao et al., Hippocampus supra; Staubli et al., Hippocampus Vol. 2: 49-58 (1992)].
The variables set forth in the table refer to the following generic structure: [drawing 33]

In data set [2] the test system is AMPA receptor. The note with it: cited from earlier work.
Data set [3] can be described thus: PET biodistribution of 11C-labelled Invention Compound II after i.p. injection. An excerpt:
To test the ability of invention compounds to pass the blood-brain barrier, Invention Compound II was labelled with carbon-11.
Radiolabelled Invention Compound II (see the table above) is synthesized by the following scheme (wherein the numbers in parenthesis refer to the quantity of reagent used, in millimoles): [drawing 34] wherein Ar is aryl (such as methylenedioxybenzene), Im is imidazole (thus, ImHCl is imidazole hydrochloride), and R is an alkyl or alkylene radical (so that R2 NH is, for example, piperidine). ^11 C-labelled CO2 is produced by cyclotron irradiation and subsequently used in the above-described synthetic scheme. The time to complete the synthesis is about […] ([…] the half-life of carbon-11). After purification of [^11 C]II on C18 Sep Pak, 260 μCi was diluted with 20 mg of nonradioactive II as carrier in a 1-ml solution of 23% propylene glycol and 10% ethanol in physiologically-buffered saline in order to simulate the dosage of 100 mg/Kg that was used in behavioral studies. The final 1 ml of solution was administered to a 200 g rat under halothane anesthesia (1.4-1.7% in oxygen) by intraperitoneal (i.p.) injection.
Biodistribution of the radiotracer in the body of the rat was monitored by a positron camera (Scanditronix PC2048-15B) and the time-activity curves were constructed using a Vax 3500 (Digital Equipment Corporation) and shown in FIG. 5.

[4] abbreviates: read-out: EC50 (field EPSP amplitude); percent increase in field EPSP amplitude; log dose/response; maximal response of 85% increase assumed where solubility was limiting.
Where [5] appears, read: percent increase in field EPSP amplitude; log dose/response; maximal response of 85% increase assumed where solubility was limiting; read-out: EC50 (field EPSP amplitude).
Setting [6] is: after i.p. injection, 100 mg/kg.

Like-named read-outs stand apart in the source and are kept apart here.

As to `O=C1CCCN1C(=O)c1ccc2c(c1)OCO2` [Invention Compound XVI], the 50% effective concentration (EC50) in data set [1] (setting [4]) is 2000 µM.

For `O=C(c1ccc2[nH]cnc2c1)N1CC=CCC1` [Invention Compound XII], in data set [1] (setting [5]), the EC50 was 5000 µM.

Turning to `O=C(c1ccc2c(c1)OCO2)N1CC=CCC1` [Invention Compound III, 1-(1,3-benzodioxol-5-ylcarbonyl)-1,2,3,6-tetrahydropyridine], in data set [1] (setting [5]), the half-maximal effective concentration (EC50) is 800 µM.

On to `COc1ccc(C(=O)NCCCC(=O)O)cc1` [anisoyl-GABA], for which the aniracetam-like effects result in data set [2] (metabolite of aniracetam) is given as “no aniracetam-like effects”.

As to `O=C(c1ccc2c(c1)OCO2)N1CCCCCC1` [Invention Compound VII, 1-(1,3-benzodioxol-5-ylcarbonyl)-hexamethyleneimine], the EC50 in data set [1] (setting [5]) was determined as 4000 µM.

On to `O=C1CCCC1C(=O)c1ccc2c(c1)OCO2` (centres unmarked) [Invention Compound IV], for which, in data set [1] (setting [4]), the EC50 amounted to 900 µM.

With `O=C(c1ccc2c(c1)OCO2)N1CCCC1` [Invention Compound VI, 1(1,3-Benzodioxol-5-ylcarbonyl)-pyrrolidine], the EC50 in data set [1] (setting [5]) amounted to 1200 µM.

On to `CN(C)c1ccc(C(=O)N2CC=CCC2)cc1` [Invention Compound XV, N-(4-dimethylamino)benzoyl-1,2,3,6-tetrahydropyridine], for which the EC50 in data set [1] (setting [5]) stood at 1700 µM.

Turning to `O=C(c1ccc2ncoc2c1)N1CC=CCC1` [Invention Compound XI], in data set [1] (setting [5]), the EC50 is 3000 µM.

For `CC1Oc2ccc(C(=O)N3CCCCC3)cc2O1` (racemic) [Invention Compound V, (R,S)-1-(2-methyl-1,3-benzodioxol-5-ylcarbonyl)-piperidine], the EC50 in data set [1] (setting [5]) was 1100 µM.

As to `O=C(c1ccc2c(c1)OCCO2)N1CC=CC1` [Invention Compound VIII], in data set [1] (setting [5]), the EC50 came to 3000 µM.

For `O=C(c1ccc2nccnc2c1)N1CC=CCC1` [Invention Compound XIII, 1-(quinoxalin-6-ylcarbonyl)-1,2,3,6-tetrahydropyridine], in data set [1] (setting [5]), the concentration giving a half-maximal response (EC50) is 50 µM.

On to `O=C(c1ccc2nccnc2c1)N1CCCCC1` [Invention Compound XIV, 1-(quinoxalin-6-ylcarbonyl)-piperidine], for which, in data set [1] (setting [5]), the EC50 is 300 µM.

As to `O=C(c1ccc2c(c1)OCO2)N1CCCCC1` [Invention Compound II, 1-(1,3-benzodioxol-5-ylcarbonyl)-piperidine], the EC50 in data set [1] (setting [5]) was determined as 1500 µM. In addition, in data set [3] (setting [6]), the “time of peak uptake in brain” value is listed as “about 5 minutes”, the “time of peak uptake in heart” value was “about 5 minutes”, the “time of peak uptake in liver” value was “about 3 minutes” and the “time of peak uptake in soft tissues” value is listed as “about 17 minutes”. The “passage through the blood-brain barrier” value in data set [3] (i.p.) is reported as “passes freely through the blood-brain barrier”. Besides, in data set [3] (rat, in vivo, ip), the “brain distribution relative to head excluding the cranial cavity” value is listed as “approximately equal to that of the head excluding the cranial cavity”; the “decline of levels in liver after peak” value was “declined markedly for the first 5 minutes after peaking and then more gradually”; the “decline of levels in the other three tissues (heart, brain, soft tissue) after peak” value is “declined very gradually after peaking”; the “entry into and residence in brain (target tissue)” value was “relatively rapid and stayed in the brain for an extended period”. Moreover, the “order of tissue uptake” value in data set [3] (rat, in vivo, ip) is reported as “liver showed the maximum uptake, followed by heart”.

Take `COc1ccc(C(=O)N2CC[C@@H](O)C2=O)cc1` [(R)-1-p-anisoyl-3-hydroxy-2-pyrrolidinone]: in data set [2] (nootropics tested in slices), the “facilitation of AMPA receptor mediated responses” value was “facilitate AMPA receptor mediated responses”.

For the molecule `O=C(c1ccc2ocnc2c1)N1CC=CCC1` [Invention Compound IX], the EC50 in data set [1] (setting [5]) came to 4000 µM.

(Values after patent US5852008A, “Heteroatom substituted benzoyl derivatives that enhance synaptic response mediated by receptors” (The Regents of the University of California, priority 1995, dated 1998).)
